Results as given in ChEMBL document CHEMBL1145732, “Non-imidazole heterocyclic histamine H3 receptor antagonists” (Bioorg Med Chem Lett, 2003).

Assays:
[1] = Half-life was determined; format: ADME; details: human
Caco-2 = assay: Permeability was evaluated using Caco-2 cells; format: functional, cell-based; details: Homo sapiens
Rattus norvegicus = species: Rattus norvegicus; assay: Compound was evaluated in a functional assay for determining rat pA2; details: read-out: pA2 (converted)
SK-N-MC = assay: Compound was evaluated in a functional assay against […] cells stably transfected with the human H3 receptor; format: cell-based; details: read-out: pA2 (converted)
Histamine H3 receptor = Histamine H3 receptor (Homo sapiens, UniProt Q9Y5N1); assay: Binding affinity towards human Histamine H3 receptor using [3H]N-methyl-histamine as radioligand
Chain of Histamine H3 receptor (Q9Y5N1 whole entry): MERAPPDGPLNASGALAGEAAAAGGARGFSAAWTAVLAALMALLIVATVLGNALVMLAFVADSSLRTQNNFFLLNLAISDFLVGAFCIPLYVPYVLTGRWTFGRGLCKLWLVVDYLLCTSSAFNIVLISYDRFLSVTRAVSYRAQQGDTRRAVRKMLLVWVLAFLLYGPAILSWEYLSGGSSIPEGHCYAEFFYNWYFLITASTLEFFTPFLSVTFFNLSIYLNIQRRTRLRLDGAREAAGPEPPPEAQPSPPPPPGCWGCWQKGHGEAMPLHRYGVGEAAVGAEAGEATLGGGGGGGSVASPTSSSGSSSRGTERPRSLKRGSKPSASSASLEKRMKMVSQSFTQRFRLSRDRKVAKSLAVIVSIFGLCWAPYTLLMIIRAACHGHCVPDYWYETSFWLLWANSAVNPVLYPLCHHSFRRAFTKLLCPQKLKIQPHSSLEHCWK

SMILES	Ki (Histamine H3 receptor)	other results
c1ccn2cc(-c3ccc(OCCCN4CCCCC4)cc3)cc2c1	13 nM	half-life [1]: 10 min; Papp (Caco-2): 0.14 ×10⁻⁶ cm/s; Kb (Rattus norvegicus): 19.5 nM; Kb (SK-N-MC): 3.16 nM
Cc1cc(OCCCN2CCCCC2)ccc1-c1cn2ccccc2c1C	11 nM	–
CS(=O)(=O)n1c(-c2ccc(OCCCN3CCCCC3)cc2)cc2ccccc21	16 nM	–
Cc1ccn2cc(-c3ccc(OCCCN4CCCCC4)cc3)cc2c1	40 nM	–
c1ccc(-c2c(-c3ccc(OCCCN4CCCCC4)cc3)cn3ccccc23)cc1	40 nM	–
Cc1c(-c2ccc(OCCCN3CCCCC3)cc2)cn2ccccc12	16 nM	–
c1ccc2[nH]c(-c3ccc(OCCCN4CCCCC4)cc3)cc2c1	47 nM	–
Cc1cccc2cc(-c3ccc(OCCCN4CCCCC4)cc3)cn12	46 nM	–
Cc1c(-c2ccc(OCCCN3CCCCC3)cc2)cc2ccccn12	2 nM	half-life [1]: 54 min
CCc1c(-c2ccc(OCCCN3CCCCC3)cc2)cc2ccccn12	5 nM	–
c1ccc(-c2cc3ccccn3c2)c(OCCCN2CCCCC2)c1	236 nM	–
c1ccc(CCc2c(-c3ccc(OCCCN4CCCCC4)cc3)cn3ccccc23)cc1	37 nM	–
Cc1cc(OCCCN2CCCCC2)ccc1-c1cc2ccccn2c1	152 nM	–
c1cc(OCCCN2CCCCC2)cc(-c2cc3ccccn3c2)c1	308 nM	–
CCc1c(-c2ccc(OCCCN3CCCCC3)cc2)cn2ccccc12	19 nM	–
c1ccn2nc(-c3ccc(OCCCN4CCCCC4)cc3)cc2c1	11 nM	–
Cc1ccc2cc(-c3ccc(OCCCN4CCCCC4)cc3)cn2c1	28 nM	–
Cc1cccn2cc(-c3ccc(OCCCN4CCCCC4)cc3)cc12	40 nM	–
